Measured values published in patent US5696083A, “Personal care composition containing pyrithione and polymyxin” (Olin Corporation, priority 1994, dated 1997).

Key:
Type in all cases: cell-based
[1] = test system: Pseudomonas Stutzeri; experiment: MIC in Tryptic Soy Broth, compounds alone and in mixtures; details: Table 1, 28° C., 3 days
Description: (§1) Determinations of minimum inhibitory concentrations (MIC's) of the two compounds (pyrithione salts and/or polymyxin sulfate) in a nutrient broth (alone and in mixtures) were conducted to evaluate interactions. Stock solutions of pyrithione salts and/or polymyxin salts were diluted in Tryptic Soy Broth (Difco), and the dilutions were inoculated with an equal volume of bacterial culture (10^6 /ml) or fungal spore suspension (10^5 /ml) in Tryptic Soy Broth and incubated at 28° C. for 3-7 days.
(§2) The interactions of the antimicrobials were determined according to accepted procedures (M. C. Berenbaum [Tables 1 and 2] and P. F. Dougherty "Microdilution Transfer Plate Technique for Determining In Vitro Synergy of Antimicrobial Agents", ANTIMICROBIAL AGENTS AND CHEMOTHERAPY, Vol. 11, No. 2, p. 225-228 (Feb. 1977, American Society for Microbiology) [Tables 3 and 4]). The concentration of each agent in the combination that inhibits the organisms is expressed as a fraction of the concentration that causes the same effect when the same agent is tested alone (i.e., its fractional inhibitory concentration, FIC). If the sum of the FIC's is 1, the combination is additive in its antimicrobial effect; if the sum is <1, the combination is synergistic; and if the sum is >1, the combination is antagonistic.
(§3) ^a Compounds were serially diluted in Tryptic soy Broth (DIFCO),
(§4) ^b Each dilution contained 10^6 bacteria/ml of 10^5 fungi/ml.
(§5) ^a Stock solutions of ZP in dimethylsulfoxide and PB in sterile water

[2] = test system: Citrobacter freundii; experiment: as above; details: Table 1, 28° C., 3 days
Description: as §1, §2, §3, §4, §5

[3] = test system: Pseudomonas rubescens; experiment: as above; details: Table 1, 28° C., 3 days
Description: as §1, §2, §3, §4, §5

[4] = test system: Penicillin pinophilium; experiment: as above; details: Table 1, 28° C., 6-7 days
Description: as §1, §2, §3, §4, §5

[5] = test system: Gliocladium virens; experiment: as above; details: Table 1, 28° C., 6-7 days
Description: as §1, §2, §3, §4, §5

[6] = test system: Chaetomium globosium; experiment: as above; details: Table 1, 28° C., 6-7 days
Description: as §1, §2, §3, §4, §5

[7] = test system: Aspergillus niger; experiment: as above; details: Table 1, 28° C., 6-7 days
Description: as §1, §2, §3, §4, §5

[8] = test system: Cephalosporium sp.; experiment: as above; details: Table 1, 28° C., 6-7 days
Description: as §1, §2, §3, §4, §5

[9] = test system: Fusarium solani; experiment: as above; details: Table 1, 28° C., 6-7 days
Description: as §1, §2, §3, §4, §5

[10] = test system: Pseudomonas aeruginosa; experiment: as above; details: Table 1, 28° C., 3 days
Description: as §1, §2, §3, §4, §5

[11] = test system: Alcaligens faecalis; experiment: as above; details: Table 1, 28° C., 3 days
Description: as §1, §2, §3, §4, §5

[12] = test system: Aureobasidium pullulans; experiment: as above; details: Table 1, 28° C., 6-7 days
Description: as §1, §2, §3, §4, §5

[13] = test system: Pseudomonas oleovorans; experiment: as above; details: Table 1, 28° C., 3 days
Description: as §1, §2, §3, §4, §5

[14] = test system: Pseudomonas fluorescens; experiment: as above; details: Table 1, 28° C., 3 days
Description: as §1, §2, §3, §4, §5

[15] = test system: Trichophyton mentagrophytes; experiment: as above; details: Table 1, 28° C., 6-7 days
Description: as §1, §2, §3, §4, §5

[16] = test system: Candida albicans; experiment: as above; details: Table 1, 28° C., 6-7 days
Description: as §1, §2, §3, §4, §5

[17] = test system: Proteus mirabilis; experiment: as above; details: Table 1, 28° C., 3 days
Description: as §1, §2, §3, §4, §5

[18] = test system: Pseudomonas aeruginosa; experiment: Checkerboard MIC Test in Tryptic Soy Broth; details: 28° C., 3 days; for Minimum Inhibitory Concentration, Compound Used Alone: checkerboard, PE methanesulfonate, Na+, 14,310 units/mg
Description: as §1, §2, §4

[19] = test system: Pseudomonas fluorescens; experiment: Checkerboard MIC Test in Tryptic Soy Broth; details: 28° C., 3 days; for Minimum Inhibitory Concentration, Compound Used Alone: checkerboard, PE methanesulfonate, Na+, 14,310 units/mg
Description: as §1, §2, §4

[20] = test system: Trichophyton mentagrophytes; experiment: Checkerboard MIC Test in Tryptic Soy Broth; details: 28° C., 5 days; for Minimum Inhibitory Concentration, Compound Used Alone: checkerboard, PE methanesulfonate, Na+, 14,310 units/mg
Description: as §1, §2, §4

[21] = test system: Candida albicans; experiment: Checkerboard MIC Test in Tryptic Soy Broth; details: 28° C., 5 days; for Minimum Inhibitory Concentration, Compound Used Alone: checkerboard, PE methanesulfonate, Na+, 14,310 units/mg
Description: as §1, §2, §4

[22] = test system: Proteus mirabilis; experiment: Checkerboard MIC Test in Tryptic Soy Broth; details: 28° C., 3 days; for Minimum Inhibitory Concentration, Compound Used Alone: checkerboard, PE methanesulfonate, Na+, 14,310 units/mg
Description: as §1, §2, §4

[23] = alone, Tryptic Soy Broth, PB sulfate 7610 units/mg
[24] = concentration of the component in SP+PB mixture, SP/PB ratio 650
[25] = concentration of the component in SP+PB mixture, SP/PB ratio 1/20-1/10
[26] = concentration of the component in SP+PB mixture, SP/PB ratio 1
[27] = Table 3, concentration of the component in SP+PE mixtures, SP/PE range 4-16
[28] = Table 3, concentration of the component in SP+PE mixtures, SP/PE range ≤1/128-8
[29] = Table 3, concentration of the component in SP+PE mixtures, SP/PE range 1/2-8
[30] = Table 3, concentration of the component in SP+PE mixtures, SP/PE range 1/2048-1/4
[31] = Table 3, concentration of the component in SP+PE mixtures, SP/PE range 1/16-4

## [Na+].[O-][n+]1ccccc1[S-] [SP, sodium pyrithione]
[1]; [23]
  Minimum Inhibitory Concentration, Compound Used Alone: 81.3 ppm
[1]; concentration of the component in SP+PB mixture, SP/PB ratio 325-650
  Minimum Inhibitory Concentration, Mixture: 40.6 ppm
[2]; [23]
  Minimum Inhibitory Concentration, Compound Used Alone: 12.7 ppm
[2]; concentration of the component in SP+PB mixture, SP/PB ratio 41-81
  Minimum Inhibitory Concentration, Mixture: 6.7 ppm
[3]; [23]
  Minimum Inhibitory Concentration, Compound Used Alone: 23.7 ppm
[3]; [24]
  Minimum Inhibitory Concentration, Mixture: 2.5 ppm
[4]; [23]
  Minimum Inhibitory Concentration, Compound Used Alone: 20.3 ppm
[4]; [25]
  Minimum Inhibitory Concentration, Mixture: 5.1 ppm
[5]; [23]
  Minimum Inhibitory Concentration, Compound Used Alone: 108.3 ppm
[5]; concentration of the component in SP+PB mixture, SP/PB ratio 1/10-1
  Minimum Inhibitory Concentration, Mixture: 15.2 ppm
[6]; [23]
  Minimum Inhibitory Concentration, Compound Used Alone: 12.7 ppm
[6]; concentration of the component in SP+PB mixture, SP/PB ratio 1/10-1/5
  Minimum Inhibitory Concentration, Mixture: 3.8 ppm
[7]; [23]
  Minimum Inhibitory Concentration, Compound Used Alone: 121.9 ppm
[7]; concentration of the component in SP+PB mixture, SP/PB ratio 1/10
  Minimum Inhibitory Concentration, Mixture: 40.6 ppm
[8]; [23]
  Minimum Inhibitory Concentration, Compound Used Alone: 50.8 ppm
[8]; [26]
  Minimum Inhibitory Concentration, Mixture: 15.2 ppm
[9]; [23]
  Minimum Inhibitory Concentration, Compound Used Alone: 243.8 ppm
[9]; [26]
  Minimum Inhibitory Concentration, Mixture: 40.6 ppm
[10]; [23]
  Minimum Inhibitory Concentration, Compound Used Alone: 162.6 ppm
[10]; concentration of the component in SP+PB mixture, SP/PB ratio 163-325
  Minimum Inhibitory Concentration, Mixture: 81.3 ppm
[11]; [23]
  Minimum Inhibitory Concentration, Compound Used Alone: 30.5 ppm
[11]; concentration of the component in SP+PB mixture, SP/PB ratio 5-41
  Minimum Inhibitory Concentration, Mixture: 9.3 ppm
[12]; [23]
  Minimum Inhibitory Concentration, Compound Used Alone: 15.2 ppm
[12]; [25]
  Minimum Inhibitory Concentration, Mixture: 5.1 ppm
[13]; [23]
  Minimum Inhibitory Concentration, Compound Used Alone: 12.7 ppm
[13]; [24]
  Minimum Inhibitory Concentration, Mixture: 3.2 ppm
[14]; [23]
  Minimum Inhibitory Concentration, Compound Used Alone: 135.5 ppm
[14]; concentration of the component in SP+PB mixture, SP/PB ratio 3-10
  Minimum Inhibitory Concentration, Mixture: 6.7 ppm
[15]; [23]
  Minimum Inhibitory Concentration, Compound Used Alone: 20.3 ppm
[15]; concentration of the component in SP+PB mixture, SP/PB ratio 1/10-1/3
  Minimum Inhibitory Concentration, Mixture: 8.5 ppm
[16]; [23]
  Minimum Inhibitory Concentration, Compound Used Alone: 33.9 ppm
[16]; [25]
  Minimum Inhibitory Concentration, Mixture: 6.7 ppm
[17]; [23]
  Minimum Inhibitory Concentration, Compound Used Alone: 325.1 ppm
[17]; concentration of the component in SP+PB mixture, SP/PB ratio 1/20-1
  Minimum Inhibitory Concentration, Mixture: 61.0 ppm
[18]; Table 3
  Minimum Inhibitory Concentration, Compound Used Alone: 128 ppm
[18]; [27]
  Minimum Inhibitory Concentration, Mixture Range: 32-64 ppm
[19]; Table 3
  Minimum Inhibitory Concentration, Compound Used Alone: 128 ppm
[19]; [28]
  Minimum Inhibitory Concentration, Mixture Range: ≤1-32 ppm
[20]; Table 3
  Minimum Inhibitory Concentration, Compound Used Alone: 32 ppm
[20]; [29]
  Minimum Inhibitory Concentration, Mixture Range: 16-32 ppm
[21]; Table 3
  Minimum Inhibitory Concentration, Compound Used Alone: 32 ppm
[21]; [30]
  Minimum Inhibitory Concentration, Mixture Range: 1-16 ppm
[22]; Table 3
  Minimum Inhibitory Concentration, Compound Used Alone: 512 ppm
[22]; [31]
  Minimum Inhibitory Concentration, Mixture Range: 256 ppm

## Polymyxin E methanesulfonate [PE]
[18]; Table 3
  Minimum Inhibitory Concentration, Compound Used Alone: 16 ppm
[18]; [27]
  Minimum Inhibitory Concentration, Mixture Range: 4-8 ppm
[18]; Table 4
  Minimum Inhibitory Concentration, Compound Used Alone: 16 ppm
[18]; Table 4, concentration of the component in ZP+PE mixtures, ZP/PE range 2-8
  Minimum Inhibitory Concentration, Mixture Range: 4-8 ppm
[19]; Table 3
  Minimum Inhibitory Concentration, Compound Used Alone: 256 ppm
[19]; [28]
  Minimum Inhibitory Concentration, Mixture Range: 4-128 ppm
[19]; Table 4
  Minimum Inhibitory Concentration, Compound Used Alone: 256 ppm
[19]; Table 4, concentration of the component in ZP+PE mixtures, ZP/PE range ≤1/128-4
  Minimum Inhibitory Concentration, Mixture Range: 4-128 ppm
[20]; Table 3
  Minimum Inhibitory Concentration, Compound Used Alone: 64 ppm
[20]; [29]
  Minimum Inhibitory Concentration, Mixture Range: 4-32 ppm
[20]; Table 4
  Minimum Inhibitory Concentration, Compound Used Alone: 64 ppm
[20]; Table 4, concentration of the component in ZP+PE mixtures, ZP/PE range 1/4-4
  Minimum Inhibitory Concentration, Mixture Range: 4-32 ppm
[21]; Table 3
  Minimum Inhibitory Concentration, Compound Used Alone: > 8200 ppm
[21]; [30]
  Minimum Inhibitory Concentration, Mixture Range: 64-2048 ppm
[21]; Table 4
  Minimum Inhibitory Concentration, Compound Used Alone: > 8200 ppm
[21]; Table 4, concentration of the component in ZP+PE mixtures, ZP/PE range 1/2048-1/4
  Minimum Inhibitory Concentration, Mixture Range: 32-2048 ppm
[22]; Table 3
  Minimum Inhibitory Concentration, Compound Used Alone: > 16,400 ppm
[22]; [31]
  Minimum Inhibitory Concentration, Mixture Range: 64-4096 ppm
[22]; Table 4
  Minimum Inhibitory Concentration, Compound Used Alone: > 16,400 ppm
[22]; Table 4, concentration of the component in ZP+PE mixtures, ZP/PE range 1/1024
  Minimum Inhibitory Concentration, Mixture Range: 4096 ppm
